Laboratory results from patent US20250263424A1, “KRAS INHIBITORS” (Bristol-Myers Squibb Company, priority 2022, published 2025).

Molecular target: Recombinant GMPPNP-loaded KRAS G12C (KRAS-G12C(ON), active form) (Homo sapiens, UniProt P01116, G12C)
Assay: KRAS G12C RAF Disruption Assay (HTRF)
Format: biochemical
Details: GMPPNP-loaded KRAS G12C 5 nM, GST-RAF1 RBD 9 nM, values in nM, read-out: KRASG12C RAF Disruption Assay (IC50)
Method: This is a functional assay that measures activity of compounds against […]., the active form of KRAS G12C. Recombinant GMPPNP-loaded KRAS G12C (5 nM) was treated with compound at room temperature for 20 minutes in assay buffer (50 mM Tris pH 7.5, 100 mM NaCl, 1 mM MgCl2, 1 mM DTT, 100 μg/ml BSA). Recombinant GST-RAF1 RBD (9 nM) was added, and the reaction mixture was incubated for 20 minutes. SA-Tb (0.25 nM) was added, and the reaction mixture was incubated for 3 hours. HTRF signal was measured (PerkinElmer Envision), the signal ratio (λem 520/λem 495) was calculated, and IC50 values were calculated from the dose-response curve.

Chain of Recombinant GMPPNP-loaded KRAS G12C (KRAS-G12C(ON), active form) (P01116 1-188 isoform P01116-2 G12C): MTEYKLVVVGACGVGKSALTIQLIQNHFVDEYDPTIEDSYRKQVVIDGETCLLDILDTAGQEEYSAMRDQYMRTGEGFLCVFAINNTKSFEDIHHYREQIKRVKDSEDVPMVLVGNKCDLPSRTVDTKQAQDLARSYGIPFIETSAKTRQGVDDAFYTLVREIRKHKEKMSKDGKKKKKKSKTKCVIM

Row | Compound | IC50
1 | CN1CCC[C@H]1COc1nc(N2CCN(C(=O)/C(F)=C/c3ccccn3)[C@@H](CC#N)C2)c2ccc(-c3cccc4cccc(Cl)c34)c(F)c2n1 [Example 37, 2-((S)-1-((Z)-2-fluoro-3-(pyridin-2-yl)acryloyl)-4-(8-fluoro-7-(8-chloronaphthalen-1-yl)-2-(((S)-1-methylpyrrolidin-2-yl)methoxy)quinazolin-4-yl)piperazin-2-yl)acetonitrile] | 110 nM
2 | CN1CCC[C@H]1COc1nc(N2CCN(C(=O)/C(F)=C/c3ncccn3)[C@@H](CC#N)C2)c2ccc(-c3cccc4cccc(Cl)c34)c(F)c2n1 [Example 38, 2-((S)-1-((Z)-2-fluoro-3-(pyrimidin-2-yl)acryloyl)-4-(8-fluoro-7-(8-chloronaphthalen-1-yl)-2-(((S)-1-methylpyrrolidin-2-yl)methoxy)quinazolin-4-yl)piperazin-2-yl)acetonitrile] | 130 nM
3 | N#CC[C@H]1CN(c2nc(OC[C@@]34CCCN3C[C@H](F)C4)nc3c(F)c(-c4cc(O)cc5ccccc45)ccc23)CCN1C(=O)/C(F)=C/c1ccccn1 [Example 39, 2-((S)-4-(8-fluoro-2-(((2R,7aS)-2-fluorotetrahydro-1H-pyrrolizin-7a(5H)-yl)methoxy)-7-(3-hydroxynaphthalen-1-yl)quinazolin-4-yl)-1-((Z)-2-fluoro-3-(pyridin-2-yl)acryloyl)piperazin-2-yl)acetonitrile] | 23 nM
4 | N#CC[C@H]1CN(c2nc(OC[C@@]34CCCN3C[C@H](F)C4)nc3c(F)c(-c4cc(O)cc5ccccc45)ccc23)CCN1C(=O)/C(F)=C/c1ncccn1 [Example 40, 2-((S)-4-(8-fluoro-2-(((2R,7aS)-2-fluorotetrahydro-1H-pyrrolizin-7a(5H)-yl)methoxy)-7-(3-hydroxynaphthalen-1-yl)quinazolin-4-yl)-1-((Z)-2-fluoro-3-(pyrimidin-2-yl)acryloyl)piperazin-2-yl)acetonitrile] | 11 nM
5 | N#CC[C@H]1CN(c2nc(OC[C@@]34CCCN3C[C@H](F)C4)nc3c(F)c(-c4cccc5cccc(Cl)c45)ccc23)CCN1C(=O)/C(F)=C/c1ccccn1 [Example 41, 2-((S)-4-(7-(8-chloronaphthalen-1-yl)-8-fluoro-2-(((2R,7aS)-2-fluorotetrahydro-1H-pyrrolizin-7a(5H)-yl)methoxy)quinazolin-4-yl)-1-((Z)-2-fluoro-3-(pyridin-2-yl)acryloyl)piperazin-2-yl)acetonitrile] | 46 nM
6 | N#CC[C@H]1CN(c2nc(OC[C@@]34CCCN3C[C@H](F)C4)nc3c(F)c(-c4cccc5cccc(Cl)c45)ccc23)CCN1C(=O)/C(F)=C/c1ncccn1 [Example 42, 2-((S)-4-(7-(8-chloronaphthalen-1-yl)-8-fluoro-2-(((2R,7aS)-2-fluorotetrahydro-1H-pyrrolizin-7a(5H)-yl)methoxy)quinazolin-4-yl)-1-((Z)-2-fluoro-3-(pyrimidin-2-yl)acryloyl)piperazin-2-yl)acetonitrile] | 88 nM
7 | Cc1cc(N)nc(-c2c(Cl)cc3c(N4CCC(CNC(=O)C(F)=Cc5ccccn5)CC4)nc(OCC4CCCN4C)nc3c2F)c1C(F)(F)F [Example 44, (2Z)-N-({1-[(7M)-7-[6-amino-4-methyl-3-(trifluoromethyl)pyridin-2-yl]-6-chloro-8-fluoro-2-{[(2S)-1-methylpyrrolidin-2-yl]methoxy}quinazolin-4-yl]piperidin-4-yl}methyl)-2-fluoro-3-(pyridin-2-yl)prop-2-enamide] | 350 nM
8 | Cc1cc(N)nc(-c2c(Cl)cc3c(N4C[C@H]5CC[C@@H]4[C@@H]5NC(=O)/C(F)=C/c4ccccn4)nc(OC[C@]45CCCN4C[C@H](F)C5)nc3c2F)c1C(F)(F)F [Example 45, (2Z)-N-[(1R,4R,7R)-2-[(7M)-2-{[(2R,7aR)-2-fluoro-hexahydro-1H-pyrrolizin-7a-yl]methoxy}-7-[6-amino-4-methyl-3-(trifluoromethyl)pyridin-2-yl]-6-chloro-8-fluoroquinazolin-4-yl]-2-azabicyclo[2.2.1]heptan-7-yl]-2-fluoro-3-(pyridin-2-yl)prop-2-enamide] | 48 nM
9 | Cc1ccc2[nH]ncc2c1-c1ccc2c(N3CCN(C(=O)/C(F)=C/c4ccccn4)[C@@H](CC#N)C3)nc(OC[C@@H]3CCCN3C)nc2c1F [Example 50, 2-((2S)-1-((Z)-2-fluoro-3-(pyridin-2-yl)acryloyl)-4-(8-fluoro-7-(5-methyl-1H-indazol-4-yl)-2-(((S)-1-methylpyrrolidin-2-yl)methoxy)quinazolin-4-yl)piperazin-2-yl)acetonitrile] | 100 nM
10 | Cc1ccc2[nH]ncc2c1-c1ccc2c(N3CCN(C(=O)/C(F)=C/c4nccs4)[C@@H](CC#N)C3)nc(OC[C@@H]3CCCN3C)nc2c1F [Example 51, 2-((2S)-1-((Z)-2-fluoro-3-(thiazol-2-yl)acryloyl)-4-(8-fluoro-7-(5-methyl-1H-indazol-4-yl)-2-(((S)-1-methylpyrrolidin-2-yl)methoxy)quinazolin-4-yl)piperazin-2-yl)acetonitrile] | 160 nM
11 | Cc1ccc2[nH]ncc2c1-c1ccc2c(N3CCN(C(=O)/C(F)=C/c4ncccn4)[C@@H](CC#N)C3)nc(OC[C@@H]3CCCN3C)nc2c1F [Example 52, 2-((2S)-1-((Z)-2-fluoro-3-(pyrimidin-2-yl)acryloyl)-4-(8-fluoro-7-(5-methyl-1H-indazol-4-yl)-2-(((S)-1-methylpyrrolidin-2-yl)methoxy)quinazolin-4-yl)piperazin-2-yl)acetonitrile] | 450 nM
12 | Cc1ccc2[nH]ncc2c1-c1ccc2c(N3CCN(C(=O)/C(F)=C/c4cccnn4)[C@@H](CC#N)C3)nc(OC[C@@H]3CCCN3C)nc2c1F [Example 53] | 70 nM
13 | CN1CCC[C@H]1COc1nc(N2CCN(C(=O)/C(F)=C/c3ncccn3)[C@@H](CC#N)C2)c2ccc(-c3c(O)cccc3F)c(F)c2n1 [Example 55, 2-((2S)-1-((Z)-2-fluoro-3-(pyrimidin-2-yl)acryloyl)-4-(8-fluoro-7-(2-fluoro-6-hydroxyphenyl)-2-(((S)-1-methylpyrrolidin-2-yl)methoxy)quinazolin-4-yl)piperazin-2-yl)acetonitrile] | 1000 nM
14 | CN1CCC[C@H]1COc1nc(N2CCN(C(=O)/C(F)=C/c3nccs3)[C@@H](CC#N)C2)c2ccc(-c3c(O)cccc3F)c(F)c2n1 [Example 56, 2-((2S)-1-((Z)-2-fluoro-3-(thiazol-2-yl)acryloyl)-4-(8-fluoro-7-(2-fluoro-6-hydroxyphenyl)-2-(((S)-1-methylpyrrolidin-2-yl)methoxy)quinazolin-4-yl)piperazin-2-yl)acetonitrile] | 270 nM

More lines, now with the values ahead:

Row | IC50 | Compound
15 | 130 nM | CN1CCC[C@H]1COc1nc(N2CCN(C(=O)/C(F)=C/c3cccnn3)[C@@H](CC#N)C2)c2ccc(-c3c(O)cccc3F)c(F)c2n1 [Example 57]
16 | 2400 nM | CCc1cccc2cccc(-c3ccc4c(N5CCN(C(=O)/C(F)=C/c6cnccn6)[C@@H](CC#N)C5)nc(OC[C@@H]5CCCN5C)nc4c3F)c12 [Example 58, 2-((S)-4-(7-(8-ethylnaphthalen-1-yl)-8-fluoro-2-(((S)-1-methylpyrrolidin-2-yl)methoxy)quinazolin-4-yl)-1-((Z)-2-fluoro-3-(pyrazin-2-yl)acryloyl)piperazin-2-yl)acetonitrile]
17 | 260 nM | CCc1cccc2cccc(-c3ccc4c(N5CCN(C(=O)/C(F)=C/c6ccccn6)[C@@H](CC#N)C5)nc(OC[C@@H]5CCCN5C)nc4c3F)c12 [Example 59, 2-((S)-4-(7-(8-ethylnaphthalen-1-yl)-8-fluoro-2-(((S)-1-methylpyrrolidin-2-yl)methoxy)quinazolin-4-yl)-1-((Z)-2-fluoro-3-(pyridin-2-yl)acryloyl)piperazin-2-yl)acetonitrile]
18 | 170 nM | CCc1cccc2cccc(-c3ccc4c(N5CCN(C(=O)/C(F)=C/c6nccs6)[C@@H](CC#N)C5)nc(OC[C@@H]5CCCN5C)nc4c3F)c12 [Example 60, 2-((S)-4-(7-(8-ethylnaphthalen-1-yl)-8-fluoro-2-(((S)-1-methylpyrrolidin-2-yl)methoxy)quinazolin-4-yl)-1-((Z)-2-fluoro-3-(thiazol-2-yl)acryloyl)piperazin-2-yl)acetonitrile]
19 | 2800 nM | COc1ccc(Cl)cc1-c1ccc2c(N3CCN(C(=O)/C(F)=C/c4ccccn4)[C@@H](CC#N)C3)nc(OC[C@@H]3CCCN3C)nc2c1F [Example 61, 2-((S)-4-(7-(5-chloro-2-methoxyphenyl)-8-fluoro-2-(((S)-1-methylpyrrolidin-2-yl)methoxy)quinazolin-4-yl)-1-((Z)-2-fluoro-3-(pyridin-2-yl)acryloyl)piperazin-2-yl)acetonitrile]
20 | 3100 nM | COc1ccc(Cl)cc1-c1ccc2c(N3CCN(C(=O)/C(F)=C/c4nccs4)[C@@H](CC#N)C3)nc(OC[C@@H]3CCCN3C)nc2c1F [Example 62, 2-((S)-4-(7-(5-chloro-2-methoxyphenyl)-8-fluoro-2-(((S)-1-methylpyrrolidin-2-yl)methoxy)quinazolin-4-yl)-1-((Z)-2-fluoro-3-(thiazol-2-yl)acryloyl)piperazin-2-yl)acetonitrile]
21 | 9800 nM | COc1ccc(Cl)cc1-c1ccc2c(N3CCN(C(=O)/C(F)=C/c4ncccn4)[C@@H](CC#N)C3)nc(OC[C@@H]3CCCN3C)nc2c1F [Example 63, 2-((S)-4-(7-(5-chloro-2-methoxyphenyl)-8-fluoro-2-(((S)-1-methylpyrrolidin-2-yl)methoxy)quinazolin-4-yl)-1-((Z)-2-fluoro-3-(pyrimidin-2-yl)acryloyl)piperazin-2-yl)acetonitrile]
22 | 61000 nM | COc1ccc(Cl)cc1-c1ccc2c(N3CCN(C(=O)/C(F)=C/c4cnccn4)[C@@H](CC#N)C3)nc(OC[C@@H]3CCCN3C)nc2c1F [Example 64]
